Reference: patent US20210045385A1, “PYRIDAZINONE-SUBSTITUTED KETOXIMES AS HERBICIDES” (FMC Corporation, priority 2018, published 2021)

Tests used:
Type in all cases: in vivo
[1] = tested on: ragweed (common ragweed, Ambrosia elatior); assay: Test A preemergence, visual plant response rating; conditions: approx. 10 days
Summary of the method: (§1)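 Formulated in a non-phytotoxic solvent mixture including surfactant, each test chemical was sprayed onto the soil surface after sowing, or onto seedlings 2 to 10 cm high. Roughly 10 days later, plants were compared with untreated controls and rated for injury from 0 (no effect) to 100 (complete control).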

[2] = tested on: Italian ryegrass (Lolium multiflorum); assay: Test A preemergence, visual plant response rating; conditions: approx. 10 days
Summary of the method: as §1

[3] = tested on: barnyardgrass (Echinochloa crus-galli); assay: Test A preemergence, visual plant response rating; conditions: approx. 10 days
Summary of the method: as §1

[4] = tested on: pigweed (Amaranthus retroflexus); assay: Test A preemergence, visual plant response rating; conditions: approx. 10 days
Summary of the method: as §1

kochia (Kochia scoparia) [5] = assay: Test A preemergence, visual plant response rating; conditions: approx. 10 days
Summary of the method: as §1

[6] = tested on: foxtail, green (green foxtail, Setaria viridis); assay: Test A preemergence, visual plant response rating; conditions: approx. 10 days
Summary of the method: as §1

[7] = tested on: ragweed (common ragweed, Ambrosia elatior); assay: Test A postemergence, visual plant response rating; conditions: for Ragweed plant response rating (0 to 100 scale): 500 g ai/ha, postemergence, 0 is no effect, 100 is complete control; for Ragweed plant response rating: Postemergence, 125 g ai/ha, 0 to 100 scale (0 no effect, 100 complete control)
Summary of the method: as §1

[8] = tested on: blackgrass (Alopecurus myosuroides); assay: Test A postemergence, visual plant response rating; conditions: for Blackgrass plant response rating (0 to 100 scale): 500 g ai/ha, postemergence, 0 is no effect, 100 is complete control; for Blackgrass plant response rating: Postemergence, 125 g ai/ha, 0 to 100 scale (0 no effect, 100 complete control)
Summary of the method: as §1

[9] = tested on: Italian ryegrass (Lolium multiflorum); assay: Test A postemergence, visual plant response rating; conditions: for Ryegrass, Italian plant response rating (0 to 100 scale): 500 g ai/ha, postemergence, 0 is no effect, 100 is complete control; for Ryegrass, Italian plant response rating: Postemergence, 125 g ai/ha, 0 to 100 scale (0 no effect, 100 complete control)
Summary of the method: as §1

[10] = tested on: barnyardgrass (Echinochloa crus-galli); assay: Test A postemergence, visual plant response rating; conditions: for Barnyardgrass plant response rating (0 to 100 scale): 500 g ai/ha, postemergence, 0 is no effect, 100 is complete control; for Barnyardgrass plant response rating: Postemergence, 125 g ai/ha, 0 to 100 scale (0 no effect, 100 complete control)
Summary of the method: as §1

[11] = tested on: pigweed (Amaranthus retroflexus); assay: Test A postemergence, visual plant response rating; conditions: for Pigweed plant response rating (0 to 100 scale): 500 g ai/ha, postemergence, 0 is no effect, 100 is complete control; for Pigweed plant response rating: Postemergence, 125 g ai/ha, 0 to 100 scale (0 no effect, 100 complete control)
Summary of the method: as §1

corn (Zea mays) = assay: Test A postemergence, visual plant response rating; conditions: for Corn plant response rating (0 to 100 scale): 500 g ai/ha, postemergence, 0 is no effect, 100 is complete control; for Corn plant response rating: Postemergence, 125 g ai/ha, 0 to 100 scale (0 no effect, 100 complete control)
Summary of the method: as §1

kochia (Kochia scoparia) [12] = assay: Test A postemergence, visual plant response rating; conditions: for Kochia plant response rating (0 to 100 scale): 500 g ai/ha, postemergence, 0 is no effect, 100 is complete control; for Kochia plant response rating: Postemergence, 125 g ai/ha, 0 to 100 scale (0 no effect, 100 complete control)
Summary of the method: as §1

[13] = tested on: wheat (Triticum aestivum); assay: Test A postemergence, visual plant response rating; conditions: for Wheat plant response rating (0 to 100 scale): 500 g ai/ha, postemergence, 0 is no effect, 100 is complete control; for Wheat plant response rating: Postemergence, 125 g ai/ha, 0 to 100 scale (0 no effect, 100 complete control)
Summary of the method: as §1

[14] = tested on: foxtail, green (green foxtail, Setaria viridis); assay: Test A postemergence, visual plant response rating; conditions: for Foxtail, Green plant response rating (0 to 100 scale): 500 g ai/ha, postemergence, 0 is no effect, 100 is complete control; for Foxtail, Green plant response rating: Postemergence, 125 g ai/ha, 0 to 100 scale (0 no effect, 100 complete control)
Summary of the method: as §1

[15] = tested on: galium (catchweed bedstraw, Galium aparine); assay: Test A postemergence, visual plant response rating; conditions: for Galium plant response rating (0 to 100 scale): 500 g ai/ha, postemergence, 0 is no effect, 100 is complete control; for Galium plant response rating: Postemergence, 125 g ai/ha, 0 to 100 scale (0 no effect, 100 complete control)
Summary of the method: as §1

rice (Oryza sativa) = assay: Test B flooded paddy test, visual plant response rating; conditions: 250 g ai/ha, Flood, applied to paddy water, 2-leaf stage, evaluated after 13 to 15 days
Summary of the method: (§2)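 Flooded-pot treatment: water 3 cm over the soil, chemical delivered into that water, depth unchanged for the duration. Assessed by eye versus controls following 13–15 greenhouse days; plants were at 2 leaves when dosed.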

[16] = tested on: ducksalad (Heteranhera limosa); assay: as above; conditions: 250 g ai/ha, Flood, applied to paddy water, 2-leaf stage, evaluated after 13 to 15 days
Summary of the method: as §2

[17] = tested on: barnyardgrass (Echinochloa crus-galli); assay: as above; conditions: 250 g ai/ha, Flood, applied to paddy water, 2-leaf stage, evaluated after 13 to 15 days
Summary of the method: as §2

[18] = tested on: sedge, umbrella (small-flower umbrella sedge, Cyperus difformis); assay: as above; conditions: 250 g ai/ha, Flood, applied to paddy water, 2-leaf stage, evaluated after 13 to 15 days
Summary of the method: as §2

Structure (SMILES) | Ragweed plant response rating (0 to 100 scale) ([1]; 125 g ai/ha Preemergence) | Ragweed plant response rating (0 to 100 scale) ([1]; 500 g ai/ha Preemergence) | Ryegrass, Italian plant response rating (0 to 100 scale) ([2]; 125 g ai/ha Preemergence) | Ryegrass, Italian plant response rating (0 to 100 scale) ([2]; 500 g ai/ha Preemergence) | Barnyardgrass plant response rating (0 to 100 scale) ([3]; 125 g ai/ha Preemergence) | Barnyardgrass plant response rating (0 to 100 scale) ([3]; 500 g ai/ha Preemergence) | Pigweed plant response rating (0 to 100 scale) ([4]; 125 g ai/ha Preemergence) | Pigweed plant response rating (0 to 100 scale) ([4]; 500 g ai/ha Preemergence) | Kochia plant response rating (0 to 100 scale) (kochia (Kochia scoparia) [5]; 125 g ai/ha Preemergence) | Kochia plant response rating (0 to 100 scale) (kochia (Kochia scoparia) [5]; 500 g ai/ha Preemergence) | Foxtail, Green plant response rating (0 to 100 scale) ([6]; 125 g ai/ha Preemergence) | Foxtail, Green plant response rating (0 to 100 scale) ([6]; 500 g ai/ha Preemergence) | Ragweed plant response rating (0 to 100 scale) [7] | Ragweed plant response rating [7] | Blackgrass plant response rating (0 to 100 scale) [8] | Blackgrass plant response rating [8] | Ryegrass, Italian plant response rating (0 to 100 scale) [9] | Ryegrass, Italian plant response rating [9] | Barnyardgrass plant response rating (0 to 100 scale) [10] | Barnyardgrass plant response rating [10] | further results
CO/N=C(\c1cccc(C)c1C)c1c(O)c(C)nn(C)c1=O [Compound 22] | 50 | 90 | 10 | 30 | 0 | 0 | 30 | 90 | 10 | 10 | 0 | 0 | 50 | 40 | 40 | 10 | 30 | 10 | 10 | 0 | Pigweed plant response rating (0 to 100 scale) [11]: 50; Pigweed plant response rating [11]: 30; Corn plant response rating (0 to 100 scale) (corn (Zea mays)): 0; Corn plant response rating (corn (Zea mays)): 0; Kochia plant response rating (0 to 100 scale) (kochia (Kochia scoparia) [12]): 30; Kochia plant response rating (kochia (Kochia scoparia) [12]): 20; Wheat plant response rating (0 to 100 scale) [13]: 0; Wheat plant response rating [13]: 0; Foxtail, Green plant response rating (0 to 100 scale) [14]: 0; Foxtail, Green plant response rating [14]: 0; Galium plant response rating (0 to 100 scale) [15]: 60; Galium plant response rating [15]: 60; Plant response rating, Rice (0 to 100 scale, 0 is no effect, 100 is complete control) (rice (Oryza sativa)): 0; Plant response rating, Ducksalad (0 to 100 scale, 0 is no effect, 100 is complete control) [16]: 0; Plant response rating, Barnyardgrass (0 to 100 scale, 0 is no effect, 100 is complete control) [17]: 0; Plant response rating, Sedge, Umbrella (0 to 100 scale, 0 is no effect, 100 is complete control) [18]: 0
CO/N=C(/c1cccc(C)c1C)c1c(O)c(C)nn(C)c1=O [Compound 23] | 60 | 90 | 40 | 90 | 0 | 20 | 30 | 80 | 0 | 20 | 0 | 50 | 50 | 40 | 50 | 20 | 50 | 30 | 0 | 0 | Pigweed plant response rating (0 to 100 scale) [11]: 80; Pigweed plant response rating [11]: 20; Corn plant response rating (0 to 100 scale) (corn (Zea mays)): 0; Corn plant response rating (corn (Zea mays)): 0; Kochia plant response rating (0 to 100 scale) (kochia (Kochia scoparia) [12]): 30; Kochia plant response rating (kochia (Kochia scoparia) [12]): 10; Wheat plant response rating (0 to 100 scale) [13]: 0; Wheat plant response rating [13]: 0; Foxtail, Green plant response rating (0 to 100 scale) [14]: 0; Foxtail, Green plant response rating [14]: 0; Galium plant response rating (0 to 100 scale) [15]: 60; Galium plant response rating [15]: 50; Plant response rating, Rice (0 to 100 scale, 0 is no effect, 100 is complete control) (rice (Oryza sativa)): 0; Plant response rating, Ducksalad (0 to 100 scale, 0 is no effect, 100 is complete control) [16]: 0; Plant response rating, Barnyardgrass (0 to 100 scale, 0 is no effect, 100 is complete control) [17]: 0; Plant response rating, Sedge, Umbrella (0 to 100 scale, 0 is no effect, 100 is complete control) [18]: 0
